Several values for one entry are separate records, joined by “and”; a condition that tells them apart may be missing. Equal values may be shown once. Marks after values point to notes of the source that are not given here. Non-standard residues stand in square brackets, D forms with d. Residues, ends and D or L forms follow the SMILES beside them. *: point of attachment. Asu = N[C@@H](CCCCCC(=O)O)C(=O)O; NHOH = ON*
Experiments:
HDAC3/NCoR2 [1] = target: T1, HDAC3/NCoR2 (Homo sapiens, UniProt O15379); test: HDAC inhibition assay (fluorogenic, Ac-Leu-Gly-Lys(Ac)-AMC); type: biochemical; conditions: for HDAC3 dose-response data (relative enzyme activity), Fig. 6 + S. Fig. 10: duplicate columns
T1 construct: HDAC3/NCoR2 (full length, C-terminal His tag, NCoR2 N-terminal GST tag); purchased BPS Bioscience 50003
T1 sequence (O15379 whole entry): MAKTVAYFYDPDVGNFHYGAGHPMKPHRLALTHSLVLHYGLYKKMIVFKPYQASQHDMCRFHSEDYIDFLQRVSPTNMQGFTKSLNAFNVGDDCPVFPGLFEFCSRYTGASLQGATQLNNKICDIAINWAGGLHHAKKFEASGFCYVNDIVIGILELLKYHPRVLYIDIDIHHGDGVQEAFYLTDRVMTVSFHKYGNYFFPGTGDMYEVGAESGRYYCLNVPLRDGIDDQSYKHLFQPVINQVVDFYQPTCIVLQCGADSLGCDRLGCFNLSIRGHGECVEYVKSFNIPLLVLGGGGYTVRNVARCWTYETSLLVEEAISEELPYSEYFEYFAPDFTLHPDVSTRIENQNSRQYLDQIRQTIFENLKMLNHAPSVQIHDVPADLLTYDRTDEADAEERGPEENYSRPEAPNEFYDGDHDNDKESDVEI
T1 sequence (Q9Y618 389-480 partner limits assumed): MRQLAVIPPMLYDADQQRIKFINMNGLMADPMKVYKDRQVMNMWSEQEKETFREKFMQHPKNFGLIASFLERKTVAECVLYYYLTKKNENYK

HDAC3/NCoR2 [2] = target: T1, HDAC3/NCoR2; test: Recombinant HDAC µSPOT microarray binding assay
HDAC1 [3] = target: T2, HDAC1 (Homo sapiens, UniProt Q13547); test: HDAC inhibition assay (fluorogenic, Ac-Leu-Gly-Lys(Ac)-AMC); type: biochemical; conditions: for HDAC1 dose-response data (relative enzyme activity), Fig. 6 + S. Fig. 10: duplicate columns
T2 construct: HDAC1 (full length, C-terminal His tag, C-terminal FLAG tag, BPS Bioscience, cat. #: 50051); FLAG (C); purchased BPS Bioscience 50051
T2 sequence (Q13547 whole entry): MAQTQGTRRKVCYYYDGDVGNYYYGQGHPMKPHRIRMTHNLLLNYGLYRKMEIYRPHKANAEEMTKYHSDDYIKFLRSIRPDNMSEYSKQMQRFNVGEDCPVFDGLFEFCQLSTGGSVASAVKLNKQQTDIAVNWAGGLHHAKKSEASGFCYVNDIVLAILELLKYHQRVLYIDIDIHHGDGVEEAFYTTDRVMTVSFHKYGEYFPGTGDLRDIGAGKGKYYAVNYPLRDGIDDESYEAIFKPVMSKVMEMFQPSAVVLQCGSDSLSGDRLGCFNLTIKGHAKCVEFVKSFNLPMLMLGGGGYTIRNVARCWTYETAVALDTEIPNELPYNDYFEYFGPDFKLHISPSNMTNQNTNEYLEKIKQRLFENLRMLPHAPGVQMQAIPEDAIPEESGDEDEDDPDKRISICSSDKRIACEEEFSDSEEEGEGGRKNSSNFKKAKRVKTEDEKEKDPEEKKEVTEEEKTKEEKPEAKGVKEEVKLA

HDAC2 = target: T3, HDAC2 (Homo sapiens, UniProt Q92769); test: as above; type: biochemical; conditions: for HDAC2 dose-response data (relative enzyme activity), Fig. 6 + S. Fig. 10: duplicate columns
T3 construct: HDAC2 (full length, C-terminal His tag, BPS Bioscience, cat. #: 50002); purchased BPS Bioscience 50002
T3 sequence (Q92769 whole entry): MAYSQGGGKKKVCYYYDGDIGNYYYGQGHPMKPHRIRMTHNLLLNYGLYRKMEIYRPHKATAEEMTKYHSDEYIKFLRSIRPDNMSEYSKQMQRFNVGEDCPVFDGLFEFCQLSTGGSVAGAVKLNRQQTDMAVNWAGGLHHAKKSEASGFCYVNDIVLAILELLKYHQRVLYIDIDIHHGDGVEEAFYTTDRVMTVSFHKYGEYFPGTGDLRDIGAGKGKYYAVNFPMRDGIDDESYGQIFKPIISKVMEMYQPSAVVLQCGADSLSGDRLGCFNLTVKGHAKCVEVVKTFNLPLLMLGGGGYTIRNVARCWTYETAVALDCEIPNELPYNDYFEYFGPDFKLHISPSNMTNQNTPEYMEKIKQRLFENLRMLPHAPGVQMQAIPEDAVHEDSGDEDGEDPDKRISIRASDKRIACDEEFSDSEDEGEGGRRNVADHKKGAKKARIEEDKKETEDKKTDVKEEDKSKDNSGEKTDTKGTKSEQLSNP

HDAC8 [4] = target: T4, HDAC8 (Homo sapiens, UniProt Q9BY41); test: Recombinant HDAC µSPOT microarray binding assay;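 further: peptide µSPOT slides incubated with varying HDAC enzyme concentrations, imaged signal intensity fitted by four-parameter variable-slope regression, EC50 is enzyme concentration giving half-maximal binding, pH 7.4 HEPES buffer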
T4 construct: HDAC8 (full length, C-terminal His tag, BPS Bioscience, cat. #: 50008); purchased BPS Bioscience 50008
T4 sequence (Q9BY41 1-377): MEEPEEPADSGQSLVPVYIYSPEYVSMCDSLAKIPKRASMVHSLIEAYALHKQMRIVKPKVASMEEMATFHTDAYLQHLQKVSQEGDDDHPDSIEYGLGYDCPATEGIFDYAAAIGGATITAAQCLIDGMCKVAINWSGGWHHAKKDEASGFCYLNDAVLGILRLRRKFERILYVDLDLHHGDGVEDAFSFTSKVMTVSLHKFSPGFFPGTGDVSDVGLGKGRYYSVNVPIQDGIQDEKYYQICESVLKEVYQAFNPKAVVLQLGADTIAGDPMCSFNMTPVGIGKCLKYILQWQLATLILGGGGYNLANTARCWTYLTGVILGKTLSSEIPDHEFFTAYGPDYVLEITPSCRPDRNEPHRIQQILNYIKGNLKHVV
Procedure: Experiments were performed twice, data were obtained with Array Analyze software (Active Motif), and data analysis and representation were performed with the GraphPad Prism 7 software. Outliers were curated manually and data were fitted to nonlinear regression [log(agonist) vs. response—variable slope (four parameters)]. […] Non-sigmoidal curves were denoted as not determined (N.D.) The pEC50 values were determined as the concentration of HDAC enzyme required for half-maximal binding signal.

HDAC1 [5] = target: T2, HDAC1; test: Recombinant HDAC µSPOT microarray binding assay
HDACs 1‒3 and 8 = test: HDAC inhibition assays, statements across several class I isozymes; type: biochemical, human; conditions: across the HDACs named in the sentence
HDAC8 [6] = target: T4, HDAC8; test: HDAC inhibition assay (fluorogenic, Ac-Leu-Gly-Lys(Tfa)-AMC); type: biochemical; conditions: for HDAC8 dose-response data (relative enzyme activity, replicate values), Fig. 6 + S. Fig. 10: two replicate columns per inhibitor; for HDAC8 dose-response data (relative enzyme activity), Fig. 6 + S. Fig. 10: duplicate columns
HDAC6 = target: T5, HDAC6 (Homo sapiens, UniProt Q9UBN7); test: HDAC inhibition assay (fluorogenic, Ac-Leu-Gly-Lys(Ac)-AMC); type: biochemical; conditions: HDAC6, replicates
T5 construct: HDAC6 (full length, BPS Bioscience, cat. #: 50056); purchased BPS Bioscience 50056
T5 sequence (Q9UBN7 1-1215): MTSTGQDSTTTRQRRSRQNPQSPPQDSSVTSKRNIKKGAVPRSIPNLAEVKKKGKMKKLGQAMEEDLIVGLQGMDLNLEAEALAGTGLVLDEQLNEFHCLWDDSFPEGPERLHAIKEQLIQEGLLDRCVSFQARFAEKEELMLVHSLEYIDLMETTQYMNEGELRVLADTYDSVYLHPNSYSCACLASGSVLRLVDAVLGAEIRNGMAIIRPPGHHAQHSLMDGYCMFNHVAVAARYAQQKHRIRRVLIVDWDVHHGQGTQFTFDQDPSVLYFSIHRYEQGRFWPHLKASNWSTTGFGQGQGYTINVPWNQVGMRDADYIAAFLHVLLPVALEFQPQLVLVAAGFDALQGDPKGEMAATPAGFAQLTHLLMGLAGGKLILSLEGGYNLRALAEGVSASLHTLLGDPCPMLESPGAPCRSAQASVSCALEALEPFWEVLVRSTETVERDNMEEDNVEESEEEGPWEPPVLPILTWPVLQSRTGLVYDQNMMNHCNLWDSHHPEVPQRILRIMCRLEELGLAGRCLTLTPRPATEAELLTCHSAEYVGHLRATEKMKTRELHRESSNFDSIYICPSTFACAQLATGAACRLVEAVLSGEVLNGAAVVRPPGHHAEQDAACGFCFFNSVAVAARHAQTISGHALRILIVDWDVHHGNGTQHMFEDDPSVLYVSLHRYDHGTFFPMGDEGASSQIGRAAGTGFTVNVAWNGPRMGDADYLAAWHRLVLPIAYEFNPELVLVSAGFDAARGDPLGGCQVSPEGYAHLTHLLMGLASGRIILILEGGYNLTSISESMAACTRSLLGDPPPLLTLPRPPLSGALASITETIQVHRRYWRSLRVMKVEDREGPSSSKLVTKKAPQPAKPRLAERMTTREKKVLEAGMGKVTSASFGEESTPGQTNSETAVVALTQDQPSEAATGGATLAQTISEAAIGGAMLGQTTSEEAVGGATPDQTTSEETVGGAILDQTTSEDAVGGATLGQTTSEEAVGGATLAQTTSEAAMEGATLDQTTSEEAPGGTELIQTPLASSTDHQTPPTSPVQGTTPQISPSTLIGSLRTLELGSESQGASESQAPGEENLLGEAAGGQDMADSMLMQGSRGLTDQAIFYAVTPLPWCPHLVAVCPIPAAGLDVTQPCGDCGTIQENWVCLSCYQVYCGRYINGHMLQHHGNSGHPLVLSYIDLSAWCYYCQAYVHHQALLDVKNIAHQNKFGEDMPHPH

[7] = log[inhibitor(M)] -10,5850266520292*, whole line marked with asterisks

CC(=O)N1CCC[C@H]1C(=O)N[C@@H](CCCNC(=N)N)C(=O)N[C@@H](CCCCN)C(=O)N[C@@H](CCC(N)=O)C(=O)N[C@@H](CC(C)C)C(=O)N[C@@H](C)C(=O)N[C@H](C(=O)N[C@@H](CCCCN)C(=O)N[C@@H](C)C(=O)N[C@@H](C)C(=O)N[C@@H](CCCNC(=N)N)C(=O)N[C@@H](CCCCCC(=O)NO)C(=O)N[C@@H](CO)C(=O)N[C@@H](C)C(=O)N1CCC[C@H]1C(=O)N[C@@H](C)C(=O)N[C@@H](Cc1c[nH]c2ccccc12)C(N)=O)[C@@H](C)O [14a] (Ac-PRKQLATKAAR[Asu](NHOH)SAPAW-NH2)
Ki (HDAC3/NCoR2 [1]): 16.8 ± 0.2 nM | HDAC3 dose-response data (relative enzyme activity), Fig. 6 + S. Fig. 10 (HDAC3/NCoR2 [1]; log[inhibitor(M)] -4.30103): 0.8181 and 0.573 | HDAC3 dose-response data (relative enzyme activity), Fig. 6 + S. Fig. 10 (HDAC3/NCoR2 [1]; log[inhibitor(M)] -5): 3.641 and 2.7786 | HDAC3 dose-response data (relative enzyme activity), Fig. 6 + S. Fig. 10 (HDAC3/NCoR2 [1]; log[inhibitor(M)] -5.69897): 13.6613 and 10.1867 | HDAC3 dose-response data (relative enzyme activity), Fig. 6 + S. Fig. 10 (HDAC3/NCoR2 [1]; log[inhibitor(M)] -6.39794): 32.1253 and 23.5469 | HDAC3 dose-response data (relative enzyme activity), Fig. 6 + S. Fig. 10 (HDAC3/NCoR2 [1]; log[inhibitor(M)] -7.09691): 54.9619 and 43.4084 | HDAC3 dose-response data (relative enzyme activity), Fig. 6 + S. Fig. 10 (HDAC3/NCoR2 [1]; log[inhibitor(M)] -7.79588): 82.3244 and 70.9683 | HDAC3 dose-response data (relative enzyme activity), Fig. 6 + S. Fig. 10 (HDAC3/NCoR2 [1]; log[inhibitor(M)] -8.49485): 99.6485 and 88.5218 | HDAC3 dose-response data (relative enzyme activity), Fig. 6 + S. Fig. 10 (HDAC3/NCoR2 [1]; log[inhibitor(M)] -9.19382): 108.712 and 95.7391 | HDAC3 dose-response data (relative enzyme activity), Fig. 6 + S. Fig. 10 (HDAC3/NCoR2 [1]; log[inhibitor(M)] -9.89279): 105.572 and 99.3991 | HDAC3 dose-response data (relative enzyme activity), Fig. 6 + S. Fig. 10 (HDAC3/NCoR2 [1]; [7]): 106,3724* and 79,46551* | EC50 (HDAC3/NCoR2 [2]): 2.95 nM | Ki (HDAC1 [3]): 24.7 ± 0.5 nM | HDAC1 dose-response data (relative enzyme activity), Fig. 6 + S. Fig. 10 (HDAC1 [3]; log[inhibitor(M)] -5): 15.0147 and 10.9187 | HDAC1 dose-response data (relative enzyme activity), Fig. 6 + S. Fig. 10 (HDAC1 [3]; log[inhibitor(M)] -5.69897): 14.0922 and 20.0402 | HDAC1 dose-response data (relative enzyme activity), Fig. 6 + S. Fig. 10 (HDAC1 [3]; log[inhibitor(M)] -6.39794): 32.9512 and 39.8845 | HDAC1 dose-response data (relative enzyme activity), Fig. 6 + S. Fig. 10 (HDAC1 [3]; log[inhibitor(M)] -7.79588): 81.8715 and 100.09 | HDAC1 dose-response data (relative enzyme activity), Fig. 6 + S. Fig. 10 (HDAC1 [3]; log[inhibitor(M)] -8.49485): 94.0176 and 111.23 | HDAC1 dose-response data (relative enzyme activity), Fig. 6 + S. Fig. 10 (HDAC1 [3]; log[inhibitor(M)] -9.19382): 106.697 and 107.189 | HDAC1 dose-response data (relative enzyme activity), Fig. 6 + S. Fig. 10 (HDAC1 [3]; log[inhibitor(M)] -9.89279): 102.41 and 107.234 | HDAC1 dose-response data (relative enzyme activity), Fig. 6 + S. Fig. 10 (HDAC1 [3]; [7]): 103,6577* and 97,95181* | HDAC2 dose-response data (relative enzyme activity), Fig. 6 + S. Fig. 10 (HDAC2; log[inhibitor(M)] -5): 11.6652 and 17.3045 | HDAC2 dose-response data (relative enzyme activity), Fig. 6 + S. Fig. 10 (HDAC2; log[inhibitor(M)] -5.69897): 34.222 and 35.4537 | HDAC2 dose-response data (relative enzyme activity), Fig. 6 + S. Fig. 10 (HDAC2; log[inhibitor(M)] -7.79588): 103.08 and 94.3091 | HDAC2 dose-response data (relative enzyme activity), Fig. 6 + S. Fig. 10 (HDAC2; [7]): 107,4969* and 95,99841* | Ki (HDAC2; resynthesized peptide in solution, Cheng-Prusoff, n = 2): 98 ± 1 nM | EC50 (HDAC8 [4]): 3.02 nM | EC50 (HDAC1 [5]): 9.12 nM | inhibitory potency in words (HDACs 1‒3 and 8): inhibited all four isozymes with similar potency | Ki (HDAC8 [6]): 55 ± 0.7 nM | HDAC8 dose-response data (relative enzyme activity, replicate values), Fig. 6 + S. Fig. 10 (HDAC8 [6]; Inhibitor conc [M] -8.49485 (log)): 89.9056 and 98.262 | HDAC8 dose-response data (relative enzyme activity, replicate values), Fig. 6 + S. Fig. 10 (HDAC8 [6]; Inhibitor conc [M] -9.19382 (log)): 96.4725 and 98.8615 | HDAC8 dose-response data (relative enzyme activity, replicate values), Fig. 6 + S. Fig. 10 (HDAC8 [6]; Inhibitor conc [M] given as -7.09691 (log)): 43.1119 and 55.3592 | HDAC8 dose-response data (relative enzyme activity, replicate values), Fig. 6 + S. Fig. 10 (HDAC8 [6]; Inhibitor conc [M] given as -7.79588 (log)): 72.8593 and 80.9184 | HDAC8 dose-response data (relative enzyme activity, replicate values), Fig. 6 + S. Fig. 10 (HDAC8 [6]; Inhibitor conc [M] given as -9.89279 (log)): 99.4729 and 100.504 | HDAC8 dose-response data (relative enzyme activity), Fig. 6 + S. Fig. 10 (HDAC8 [6]; Inhibitor conc [M] -4.30103): 2.477 and 2.544 | HDAC8 dose-response data (relative enzyme activity), Fig. 6 + S. Fig. 10 (HDAC8 [6]; Inhibitor conc [M] -5): 8.237 and 8.756 | HDAC8 dose-response data (relative enzyme activity), Fig. 6 + S. Fig. 10 (HDAC8 [6]; Inhibitor conc [M] -5.69897): 16.1631 and 21.2375 | HDAC8 dose-response data (relative enzyme activity), Fig. 6 + S. Fig. 10 (HDAC8 [6]; Inhibitor conc [M] -6.39794): 27.7385 and 36.3881 | HDAC8 inhibition in words (HDAC8 [6]; in solution): robust nanomolar potency | residual enzymatic activity relative to control wells (HDAC6; log[inhibitor(M)] -4.30103): 0.91 and 1.08 | residual enzymatic activity relative to control wells (HDAC6; log[inhibitor(M)] -5): 1.61 and 1.34 | residual enzymatic activity relative to control wells (HDAC6; log[inhibitor(M)] -5.69897): 2.69 and 2.19 | residual enzymatic activity relative to control wells (HDAC6; log[inhibitor(M)] -6.39794): 9.28 and 7.48 | residual enzymatic activity relative to control wells (HDAC6; log[inhibitor(M)] -7.09691): 29.33 and 24.37 | residual enzymatic activity relative to control wells (HDAC6; log[inhibitor(M)] -7.79588): 61.34 and 57.66 | residual enzymatic activity relative to control wells (HDAC6; log[inhibitor(M)] -8.49485): 91.27 and 83.89 | residual enzymatic activity relative to control wells (HDAC6; log[inhibitor(M)] -9.19382): 101.6 and 95.57 | residual enzymatic activity relative to control wells (HDAC6; log[inhibitor(M)] -9.89279): 101.56 and 98.95 | residual enzymatic activity relative to control wells (HDAC6; log[inhibitor(M)] -10.585): 102,36* and 98,9*
